Reference: patent publication US10213449B2, “Compositions and methods for treating medulloblastoma” (The Board of Trustees of the Leland Stanford Junior …, priority 2016, dated 2019)
Entries after “also recorded” stand apart in the source; their conditions may differ.

Experiments:
[1] = test system: Hh signaling in NIH 3T3s stimulated with SAG; test: RT-qPCR of Gli1 in NIH 3T3s stimulated with SAG (epistasis study); type: cell-based, mouse; conditions: NIH 3T3s, SAG treated groups
Experimental: (§1) Epistasis studies were next performed to determine where in the hedgehog pathway CK2 acts. The effect of TBB was examined: (i) in NIH 3T3s stimulated with SAG, a SMO agonist, (ii) in Sufu−/− mouse embryonic fibroblasts (MEF), and (iii) in NIH 3T3 cells overexpressing GLI2 (FIG. 3d-3f).
NIH3T3s or SUFU−/− MEFs were plated in 6 well plates at 400,000 cells/well in 10% FBS media constituted of DMEM (Invitrogen11960-069) supplemented with 10% FBS (Hyclone Labs SH30070.02), pen/strep (Life Technologies 15140-122), sodium pyruvate (Invitrogen 11360-070) and glutamax (Invitrogen 35050-061). Cells were then starved in 0.5% FBS for 24 h prior to treatment with 25% ShhN conditioned media in 0.5% FBS+/− drug treatment. GliΔN were treated 48 h post transfection. Unless otherwise stated, all treatments were performed for 6 h. Cell lysis and RNA extraction was performed using Qiashredder homogenizers (Qiagen 79654) and RNEasy mini kits (qiagen 74104) as per manufacturer's instructions. RNA was quantified on a nanodrop spectrophotometer (nanoddrop technologies ND-2000C). Transcript quantification was performed using a TaqMan RNA-to-Ct 1-Step Kit (Life technologies, 4392656) and the Applied Biosystems 7500 RT-PCR system as per the manufacturer's instructions. […]

[2] = test system: Medulloblastoma cell lines (MB53, MB55 and MB21 cells); test: Acquired resistance in medulloblastoma cell lines; type: cell-based, mouse; conditions: CX-4945 10 uM
Experimental: Medulloblastoma cell lines (MB53, MB55 and MB21 cells) were cultured in Neurobasal (Life Technologies 10888-022)+B27 supplement (Invitrogen 17504044)+DMSO (0.1%), CX-4945 (10 uM) or TBB (50 uM). […] Primer sequences are provided in supplemental table 5.

[3] = test system: MB cell lines (MB55, MB21, MB53); test: Cell viability of MB cell lines (CellTiter-Glo); type: cell-based, mouse; conditions: multiple MB cell lines derived from Ptch1+/− and Ptch1+/−; Trp53−/− mice
Experimental: Ptch+/−MB cell lines MB55 and MB21 were kindly gifted from Dr. Rosalind Segal (Dana Farber Cancer Institute, Harvard Medical School) and Ptch^+/−; p53^−/− MB53 cells were kindly gifted from Charles Rudin (Memorial Sloan-Kettering Cancer Center). All cell lines were validated for high Gli activity. Cell viability was assessed using CellTiter-Glo (G7573, Promega, WI, USA) according to the manufacturers instructions. Cells were plated at 10000 cells/well in 96-well plates, treated with drugs as indicated and data was collected on a TECAN Infinite 200 plate reader.

[4] = test system: Ptch+/−; Trp53−/−; SmoD477G MB intracranial allografts; test: Intracranial allograft survival study; type: in vivo, mouse; conditions: CX-4945 75 mg/kg PO BID vs vehicle control
Experimental: Ptch+/−; Tpr53−/−; SmoD477G were suspended in sterile PBS to an adjusted final volume of at 80,000 cells/2 uL injection. Mice were anesthetized and fixed to a stereotactic frame and the head was sterilized. A small sagittal incision was made in the mouse's scalp to expose the area surrounding lambda. The skull was sterilized a 0.7 mm drill bit was used to create a midline hole located 2 mm down from lambda. A Hamilton syringe with affixed 26 g needle was lowered to a depth of ˜3 mm then withdraw to 2.75 mm before injecting 2 uL (80,000) cells at 0.5 ul/min. The drill hole was closed with a thin slip of bone wax and the wound was closed. […] Corn oil was used as vehicle for both CX-4945 and DMSO. Weight, morbidity and survival were measured by a blinded collaborator. Kaplan-meyer survival curves were generated using GraphPad Prism and significance was measured by Logrank Mantel-Cox test.

[5] = test system: Hh signaling in NIH 3T3 cells exposed to Shh; test: RT-qPCR of Hh target transcripts in Shh-stimulated NIH 3T3 cells; type: cell-based, mouse; conditions: SHH ligand-induced NIH 3T3 cells; as early as 4 h post exposure
Experimental: NIH3T3s or SUFU−/− MEFs were plated in 6 well plates at 400,000 cells/well in 10% FBS media constituted of DMEM (Invitrogen11960-069) supplemented with 10% FBS (Hyclone Labs SH30070.02), pen/strep (Life Technologies 15140-122), sodium pyruvate (Invitrogen 11360-070) and glutamax (Invitrogen 35050-061). Cells were then starved in 0.5% FBS for 24 h prior to treatment with 25% ShhN conditioned media in 0.5% FBS+/− drug treatment. GliΔN were treated 48 h post transfection. Unless otherwise stated, all treatments were performed for 6 h. Cell lysis and RNA extraction was performed using Qiashredder homogenizers (Qiagen 79654) and RNEasy mini kits (qiagen 74104) as per manufacturer's instructions. RNA was quantified on a nanodrop spectrophotometer (nanoddrop technologies ND-2000C). Transcript quantification was performed using a TaqMan RNA-to-Ct 1-Step Kit (Life technologies, 4392656) and the Applied Biosystems 7500 RT-PCR system as per the manufacturer's instructions. All primers were commercially available TaqMan® Gene Expression Assay probes purchased from Life Technologies (csnk2a1: Mm00786779_s1, csnk2a2: Mm01243455_m1, csnk2b: Mm00487216_m1, Gli1: Mm00494654_m1, Gli2: Mm.273292, Ccnd1: Mm.273049, Ptch: Mm00436047_m1).

[6] = test system: Hh signaling in Sufu−/− mouse embryonic fibroblasts; test: RT-qPCR of Gli1 in Sufu−/− MEFs (epistasis study); type: cell-based
Excerpt: as §1
Sufu^−/− MEFs (conditional deletion of exons 4-8) were kindly provided by Pao-Tien Chang (UCSF). SAG (S7779), GDC-0449 (Vismodegib, S1082) and CX-4945 (Silmitasertib, S2248) was purchased from SelleckChem.com. TBB was purchased from EMD (218697). Shh-N conditional medium was made using a HEK 293 cell line that stably secretes ShhN as previously described. Myc-GL12-DN (17649, pCS2-MT-GLI2-deltaN) plasmid was purchased from Addgene (Cambridge, Mass., USA). […]
NIH3T3s or SUFU−/− MEFs were plated in 6 well plates at 400,000 cells/well in 10% FBS media constituted of DMEM (Invitrogen11960-069) supplemented with 10% FBS (Hyclone Labs SH30070.02), pen/strep (Life Technologies 15140-122), sodium pyruvate (Invitrogen 11360-070) and glutamax (Invitrogen 35050-061). […] RNA was quantified on a nanodrop spectrophotometer (nanoddrop technologies ND-2000C). Transcript quantification was performed using a TaqMan RNA-to-Ct 1-Step Kit (Life technologies, 4392656) and the Applied Biosystems 7500 RT-PCR system as per the manufacturer's instructions. […]

[7] = test system: Ptch+/−; Tpr53−/−; SmoD477G MB flank allografts; test: Flank allograft study, SMO inhibitor-resistant MB; type: in vivo, mouse; conditions: TBB 30 mg/kg IP BID or GDC-0449 37.5 mg/kg IP BID vs vehicle control
Experimental: In vivo efficacy studies were performed in accordance with protocols approved by the Institutional Animal Care and Use Committee at Stanford University. SmoWT-MB and Smo[…]-MB cells isolated from either parental SmoWT or Smo[…] mouse Ptch^+/-; p53^-/- MB hind-flank allografts were kindly provided by Charles Rudin (Memorial Sloan-Kettering Cancer Center). Ptch+/-; Tpr53-/-, or, Ptch+/-; Tpr53-/-; Smo[…] MB cells were mixed 1:1 with matrigel and 10^7 cells were injected into both flanks of a Nu/Nu mouse. Once tumors reached 225-275 mm^3, mice were randomized to treatment vs. control groups. Treatment groups received 30 mg/kg IP BID of TBB (reconstituted in DMSO at 50 ug/uL), or 37.5 mg/kg IP BID of GDC-0449 (reconstituted in DMSO at 62.5 ug/uL). Control mice were treated with an equivalent volume of DMSO. Corn oil was used in all groups to a total volume of 180 uL/injection and all doses were given with a 28 g insulin syringe. Tumors were measured and mice were weighed daily. Once tumors reached 1.5 cm^2 or met institutional euthanasia criteria, mice were sacrificed and tumors were harvested. Growth curves were generated using GraphPad Prism and significance was measured by two-way ANOVA.

SMILES | Gli1 mRNA levels (effect of SMO agonist) [1] | surviving cells after 2 weeks of culture with drug [2] | cell viability [3] | survival (Kaplan-Meier) of mice harboring intracranial allografts [4] | Gli1 mRNA levels [5] | Gli1 mRNA / Gli transcript levels [6] | tumor growth of SmoD477G MB flank allografts [7]
CNC1CCC(N(Cc2cccc(-c3ccncc3)c2)C(=O)c2sc3ccccc3c2Cl)CC1 (centres unmarked) [SAG] | Increased |  |  |  |  |  | 
O=C(O)c1ccc2c(c1)nc(Nc1cccc(Cl)c1)c1ccncc12 [CX-4945, 5-(3-Chloroanilino)benzo[c][2,6]naphthyridine-8-carboxylic acid] |  | only control treated (DMSO) and MB55 TBB treated (50 uM) cells remained | decreased; also recorded: dose dependent tumoricidal effects | significant increase in survival | inhibited; also recorded: loss of Gli1 induction |  | 
CS(=O)(=O)c1ccc(C(=O)Nc2ccc(Cl)c(-c3ccccn3)c2)c(Cl)c1 [GDC-0449, 2-chloro-N-(4-chloro-3-pyridin-2-ylphenyl)-4-methylsulfonylbenzamide] |  |  |  |  | loss of Gli1 induction | no significant change | resistant
